One compound from patent US20170027967A1, “PHARMACEUTICAL FORMULATIONS” (priority 2015, published 2017) can be followed below.

Molecules are shown by their SMILES. Where two headings read alike, the source gives them in different places.

For this data set the following is noted: 40° C./75% RH open, 60° C. closed.

Description: Studies were conducted to assess the stability of tenofovir alafenamide hemifumarate in the presence of (a) emtricitabine, and (b) emtricitabine and rilpivirine HCl.

As for `CC(C)OC(=O)[C@H](C)N[P@](=O)(CO[C@H](C)Cn1cnc2c(N)ncnc21)Oc1ccccc1` [tenofovir alafenamide hemifumarate], the “rate of degradation of tenofovir alafenamide hemifumarate” value by setting is: (in the presence of both emtricitabine and rilpivirine HCl) “further increased”; (in the presence of emtricitabine) “increased”.
